Measurements as given in PubChem BioAssay (NCI).
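In this assay, cells in 96-well plates receive the compound at five concentrations for 48 hours. Endpoints are linearly interpolated between the surrounding concentrations. Abbreviation: GI50, concentration required for 50% inhibition of growth. TGI is the concentration that stops growth completely.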

Assays:
Test in all cases: NCI anticancer screen, dose series, 48 h
[1] = tested on: 786-0 renal
[2] = tested on: A498 renal
[3] = tested on: A549 NSCLC
[4] = tested on: ACHN renal
[5] = tested on: BT-549 breast
[6] = tested on: CAKI-1 renal
[7] = tested on: CCRF-CEM leukemia
[8] = tested on: COLO 205 colon
[9] = tested on: DU-145 prostate
[10] = tested on: EKVX NSCLC
[11] = tested on: HCC-2998 colon
[12] = tested on: HCT-116 colon
[13] = tested on: HCT-15 colon
[14] = tested on: HL-60(TB) leukemia
[15] = tested on: HOP-62 NSCLC
[16] = tested on: HOP-92 NSCLC
[17] = tested on: HS 578T breast
[18] = tested on: HT29 colon
[19] = tested on: IGROV1 ovarian
[20] = tested on: K-562 leukemia
[21] = tested on: KM12 colon
[22] = tested on: LOX IMVI melanoma
[23] = tested on: M14 melanoma
[24] = tested on: MALME-3M melanoma
[25] = tested on: MCF7 breast
[26] = tested on: MDA-MB-231 breast
[27] = tested on: MDA-MB-435
[28] = tested on: MOLT-4 leukemia
[29] = tested on: NCI-H226 lung
[30] = tested on: NCI-H460 lung
[31] = tested on: NCI-H522 lung
[32] = tested on: NCI/ADR-RES ovarian
[33] = tested on: OVCAR-3 ovarian
[34] = tested on: OVCAR-4 ovarian
[35] = tested on: OVCAR-5 ovarian
[36] = tested on: OVCAR-8 ovarian
[37] = tested on: PC-3 prostate
[38] = tested on: RPMI-8226 leukemia
[39] = tested on: RXF 393 renal
[40] = tested on: SF-268 CNS
[41] = tested on: SF-295 CNS
[42] = tested on: SF-539 CNS
[43] = tested on: SK-MEL-2 melanoma
[44] = tested on: SK-MEL-28 melanoma
[45] = tested on: SK-MEL-5 melanoma
[46] = tested on: SK-OV-3 ovarian
[47] = tested on: SN12C renal
[48] = tested on: SNB-19 CNS
[49] = tested on: SNB-75 CNS
[50] = tested on: SR leukemia
[51] = tested on: SW-620 colon
[52] = tested on: T-47D breast
[53] = tested on: TK-10 renal
[54] = tested on: U251 CNS
[55] = tested on: UACC-257 melanoma
[56] = tested on: UACC-62 melanoma
[57] = tested on: UO-31 renal
[58] = tested on: NCI-H23 lung

Compound `COc1cc(-c2cn(-c3ccc(Cl)c(Cl)c3)c(=O)n2C(C)=O)cc(OC)c1OC` has a GI50 [1] of 2.79 µM, a TGI [1] of 11.5 µM and a GI50 [2] of 16.6 µM. It also gave a TGI [2] of 32.1 µM, a GI50 [3] of 15 µM and a TGI [3] of 41 µM. It also gave a GI50 [4] of 10.4 µM, a TGI [4] of 30.5 µM and a GI50 [5] of 10.7 µM. The TGI [5] was 22.7 µM, the GI50 [6] was 11.5 µM and the TGI [6] was 33.5 µM. It also gave a GI50 [7] of 16.1 µM, a TGI [7] of 59.9 µM and a GI50 [8] of 7.9 µM. It also gave a TGI [8] of 21.7 µM, a GI50 [9] of 5.32 µM and a TGI [9] of 18.2 µM. It also gave a GI50 [10] of 2.6 µM, a TGI [10] of 8.26 µM and a GI50 [11] of 14.9 µM. The TGI [11] was 29.8 µM, the GI50 [12] was 13.7 µM and the TGI [12] was 27.9 µM. For the same compound, the GI50 [13] was 18.1 µM, the TGI [13] was 45.9 µM and the GI50 [14] was 14.2 µM. For the same compound, the TGI [14] was 33.9 µM, the GI50 [15] was 7.48 µM and the TGI [15] was 21.1 µM. For the same compound, the GI50 [16] was 3.42 µM, the TGI [16] was 16.8 µM and the GI50 [17] was 6.16 µM. For the same compound, the TGI [17] was 29.3 µM, the GI50 [18] was 6.32 µM and the TGI [18] was 21.8 µM. The GI50 [19] was 5.34 µM, the TGI [19] was 17.6 µM and the GI50 [20] was 16.1 µM. For the same compound, the TGI [20] was > 100 µM, the GI50 [21] was 12.3 µM and the TGI [21] was 28.6 µM. For the same compound, the GI50 [22] was 13.7 µM, the TGI [22] was 28 µM and the GI50 [23] was 16.7 µM. For the same compound, the TGI [23] was 45.7 µM, the GI50 [24] was 15.3 µM and the TGI [24] was 33.3 µM. For the same compound, the GI50 [25] was 14.7 µM, the TGI [25] was 37.7 µM and the GI50 [26] was 10.4 µM. It also gave a TGI [26] of 26.2 µM, a GI50 [27] of 14.2 µM and a TGI [27] of 35 µM. It also gave a GI50 [28] of 14.7 µM, a TGI [28] of 31.6 µM and a GI50 [29] of 7.96 µM. It also gave a TGI [29] of 25.9 µM, a GI50 [30] of 10.5 µM and a TGI [30] of 25.1 µM. The GI50 [31] was 13.3 µM, the TGI [31] was 30 µM and the GI50 [32] was 13.5 µM. For the same compound, the TGI [32] was 31.7 µM, the GI50 [33] was 14.9 µM and the TGI [33] was 38.1 µM. The GI50 [34] was 5.21 µM, the TGI [34] was > 100 µM and the GI50 [35] was 13 µM. For the same compound, the TGI [35] was 27.3 µM, the GI50 [36] was 8.49 µM and the TGI [36] was 31.9 µM. It also gave a GI50 [37] of 4.3 µM, a TGI [37] of 17.8 µM and a GI50 [38] of 10.5 µM. It also gave a TGI [38] of 32.3 µM, a GI50 [39] of 3.34 µM and a TGI [39] of 14.9 µM. The GI50 [40] was 6.92 µM, the TGI [40] was 30 µM and the GI50 [41] was 1.53 µM. For the same compound, the TGI [41] was 5.79 µM, the GI50 [42] was 2.07 µM and the TGI [42] was 4.29 µM. The GI50 [43] was 10.6 µM, the TGI [43] was 25.3 µM and the GI50 [44] was 11.6 µM. The TGI [44] was 29.6 µM, the GI50 [45] was 12.7 µM and the TGI [45] was 25.3 µM. For the same compound, the GI50 [46] was 15.4 µM, the TGI [46] was 33.3 µM and the GI50 [47] was 12.3 µM. For the same compound, the TGI [47] was 31.1 µM, the GI50 [48] was 11.3 µM and the TGI [48] was 33.2 µM. For the same compound, the GI50 [49] was 9.64 µM, the TGI [49] was 33.8 µM and the GI50 [50] was 14.8 µM. It also gave a TGI [50] of 34.5 µM, a GI50 [51] of 12.9 µM and a TGI [51] of 29.8 µM. It also gave a GI50 [52] of 18.4 µM, a TGI [52] of 48.1 µM and a GI50 [53] of 12.2 µM. The TGI [53] was 31 µM, the GI50 [54] was 8.86 µM and the TGI [54] was 21.3 µM. The GI50 [55] was 7.51 µM, the TGI [55] was 23.2 µM and the GI50 [56] was 13.3 µM. The TGI [56] was 26 µM, the GI50 [57] was 12 µM and the TGI [57] was 27.4 µM.
In the case of `O=C(O)c1ccc2c(c1)CCCC(c1ccc(Cl)cc1Cl)=C2c1ccc(O[C@H]2CCN(CCCF)C2)cc1`, the GI50 [1] is reported as 12.9 µM, the TGI [1] is reported as 28 µM and the GI50 [2] is reported as 11.5 µM. The TGI [2] was 24.6 µM, the GI50 [3] was 6.7 µM and the TGI [3] was 24.1 µM. The GI50 [4] was 11.7 µM, the TGI [4] was 24.3 µM and the GI50 [5] was 10 µM. For the same compound, the TGI [5] was 22.9 µM, the GI50 [6] was 11.5 µM and the TGI [6] was 24 µM. The GI50 [7] was 10.8 µM, the TGI [7] was 27.6 µM and the GI50 [8] was 14.9 µM. The TGI [8] was 33.7 µM, the GI50 [9] was 14.2 µM and the TGI [9] was 27.5 µM. For the same compound, the GI50 [10] was 10.7 µM, the TGI [10] was 25.3 µM and the GI50 [11] was 13.6 µM. It also gave a TGI [11] of 27.9 µM, a GI50 [12] of 7.98 µM and a TGI [12] of 21.7 µM. For the same compound, the GI50 [13] was 6.38 µM, the TGI [13] was 20.1 µM and the GI50 [14] was 7.41 µM. The TGI [14] was 22.7 µM, the GI50 [15] was 15 µM and the TGI [15] was 33.6 µM. The GI50 [16] was 11.3 µM, the TGI [16] was 25.1 µM and the GI50 [17] was 12.9 µM. It also gave a TGI [17] of 31.8 µM, a GI50 [18] of 11.9 µM and a TGI [18] of 28.1 µM. The GI50 [19] was 13.8 µM, the TGI [19] was 35.6 µM and the GI50 [20] was 8.05 µM. It also gave a TGI [20] of 23.1 µM, a GI50 [21] of 7.29 µM and a TGI [21] of 20.3 µM. It also gave a GI50 [22] of 11 µM, a TGI [22] of 26.1 µM and a GI50 [23] of 13.2 µM. It also gave a TGI [23] of 28.7 µM, a GI50 [24] of 14.7 µM and a TGI [24] of 35.4 µM. The GI50 [25] was < 0.01 µM, the TGI [25] was 15.9 µM and the GI50 [26] was 16.4 µM. It also gave a TGI [26] of 31.6 µM, a GI50 [27] of 10.5 µM and a TGI [27] of 24.3 µM. The GI50 [28] was 8.62 µM, the TGI [28] was 24.2 µM and the GI50 [29] was 10.4 µM. It also gave a TGI [29] of 38.8 µM, a GI50 [58] of 13.2 µM and a TGI [58] of 29.3 µM. It also gave a GI50 [30] of 9.27 µM, a TGI [30] of 23.8 µM and a GI50 [32] of 13 µM. It also gave a TGI [32] of 27.4 µM, a GI50 [33] of 12.1 µM and a TGI [33] of 24.7 µM. The GI50 [34] was 12 µM, the TGI [34] was 30 µM and the GI50 [35] was 17.4 µM. For the same compound, the TGI [35] was 32.1 µM, the GI50 [36] was 13.5 µM and the TGI [36] was 33.7 µM. The GI50 [37] was 10.4 µM, the TGI [37] was 24.2 µM and the GI50 [38] was 6.99 µM. For the same compound, the TGI [38] was 27.5 µM, the GI50 [39] was 3.38 µM and the TGI [39] was 17 µM. It also gave a GI50 [40] of 12.1 µM, a TGI [40] of 28.5 µM and a GI50 [41] of 7.86 µM. The TGI [41] was 20.5 µM, the GI50 [42] was 14.1 µM and the TGI [42] was 27.5 µM. For the same compound, the GI50 [43] was 14.3 µM, the TGI [43] was 30.6 µM and the GI50 [44] was 11.5 µM. It also gave a TGI [44] of 25.1 µM, a GI50 [45] of 10.8 µM and a TGI [45] of 23.2 µM. It also gave a GI50 [46] of 16.7 µM, a TGI [46] of 30.8 µM and a GI50 [47] of 15.2 µM. For the same compound, the TGI [47] was 31 µM, the GI50 [48] was 12 µM and the TGI [48] was 26.4 µM. It also gave a GI50 [49] of 12.1 µM, a TGI [49] of 25.3 µM and a GI50 [50] of 4.87 µM. The TGI [50] was 20.7 µM, the GI50 [51] was 14.3 µM and the TGI [51] was 28.9 µM. For the same compound, the GI50 [52] was < 0.01 µM, the TGI [52] was 22.5 µM and the GI50 [53] was 13.4 µM. It also gave a TGI [53] of 27.6 µM, a GI50 [54] of 10.1 µM and a TGI [54] of 25.2 µM. For the same compound, the GI50 [55] was 14.1 µM, the TGI [55] was 30 µM and the GI50 [56] was 12.7 µM. For the same compound, the TGI [56] was 26.3 µM, the GI50 [57] was 9.76 µM and the TGI [57] was 25.6 µM.
